For orientation: Kd means the free concentration of one partner at which half of the binding sites on the other are occupied at equilibrium, for simple one-to-one binding. High values mean weaker binding, low ones tighter binding.

This assay deals with PTEN (GST-PTEN; Myc-PTEN) (Homo sapiens, UniProt P60484). Kind of assay: SPR, BIACORE […], PTEN immobilised on CM5 chip. It is filed as binding. For orientation: SPR reads the build-up and loss of mass on a sensor chip optically.
Sequence of PTEN (GST-PTEN; Myc-PTEN) (P60484 whole entry): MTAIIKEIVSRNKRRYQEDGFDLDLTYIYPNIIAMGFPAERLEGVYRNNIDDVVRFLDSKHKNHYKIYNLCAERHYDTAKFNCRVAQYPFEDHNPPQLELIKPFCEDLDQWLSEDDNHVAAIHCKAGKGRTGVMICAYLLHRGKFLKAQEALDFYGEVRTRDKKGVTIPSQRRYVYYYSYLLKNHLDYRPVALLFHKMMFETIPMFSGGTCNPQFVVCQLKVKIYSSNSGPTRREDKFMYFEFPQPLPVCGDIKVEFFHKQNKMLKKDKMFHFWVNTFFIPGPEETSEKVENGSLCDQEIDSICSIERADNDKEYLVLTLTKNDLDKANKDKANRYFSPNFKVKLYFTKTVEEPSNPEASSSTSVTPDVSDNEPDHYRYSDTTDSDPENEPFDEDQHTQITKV

In the case of `C[C@@H]1O[C@@H](O[C@@H]2[C@@H](O)[C@H](OCCc3ccc(O)c(O)c3)O[C@H](CO[C@@H]3O[C@H](CO)[C@@H](O)[C@H](O)[C@H]3O)[C@H]2OC(=O)/C=C/c2ccc(O)c(O)c2)[C@H](O)[C@H](O)[C@H]1O` [Echinacoside], the Kd came out at 230 µM.

(Values after article doi:10.1101/2024.08.06.606911v7 (biorxiv, 2025).)
